According to article PMC11611271, “Rapid prediction of key residues for foldability by machine learning model enables the design of highly functional libraries with hyperstable constrained peptide scaffolds” (PLOS Computational Biology, 2024):
Where a SMILES comes first, the peptide text is derived from it. Bridges are numbered along the chain shown (N, C = ends).

Assays:
Type in all cases: binding
[1] = test system: CRD7; test: phage spot ELISA on CRD7; conditions: for ELISA signal: phage spot ELISA of the clone, positive hit: signal > 0.3 and signal/noise > 2; for ELISA s/n: phage spot ELISA signal/noise ratio; for S/N: phage spot ELISA signal/noise; for S/N / ELISA: S3 Table sheet CRD7; for ELISA: phage spot ELISA signal
Text: (§1) To determine the performance of the libraries for ligand discovery we chose a panel of eight protein targets, which have no structural homology and a wide mass range (Fig 7C). We screened these eight targets with solution panning strategy and two additional plate panning for CD8α/β and CD28, thus ten panning campaigns in total. We consider clones showing spot phage ELISA signal > 0.3 and signal/noise ratio > 2 as positive hits. At least one binding hit was discovered for nine out of the ten panning campaigns, surpassing the success rate of the best DCP scaffolds reported previously. We also obtained the NGS data for these screening and the ranking of clones for their enrichment along the rounds of screening was analyzed and considered the top-ranking clones as potential hits. Based on their sequence diversity we selected 16 potential hits spanning five protein targets for peptide synthesis in their linear form. Seven of these are hits with positive phage ELISA signal and nine were selected based on NGS ranking without spot ELISA available. Subsequently, we conducted in vitro folding experiments on these peptides in various buffers. We observed a strong propensity for spontaneous folding regardless of the buffer condition. All HCP hits tested successfully folded into three-disulfide-containing product within two days in a universal buffer system (PBS, pH 7.4, 50% DMSO) without the need for a redox pair, as shown in Fig 8A. The binding of these folded peptides to their respective target proteins was confirmed using SPR (Table 4 and S1 Data) and binding kinetics are exemplified by the high-affinity peptide 5ji4-CRD7-2 (see Fig 8B). Among seven selected ELISA-positive hits, all of them were successfully synthesized and in vitro folded with three disulfide bonds and five were proven to be validated binders by SPR (Table 4). Nine peptides selected from the NGS ranking were synthesized and folded with the expected number of disulfide bonds and five of them bound to their target with affinities in the μM range as determined by SPR (Table 4). In general, binding affinities for these SPR-validated initial hits are weak, with Kd values in the micromolar range and fast on- and off-rates. There are two exceptions with binding affinities in the nanomolar range.
(§2) The 5ji4 libraries were constructed following the Kunkel mutagenesis method and the solution panning protocol was followed as previously described. After four to five rounds of binding selection, while eluted pool was subjected to NGS analysis, individual phage clones were also picked and analyzed with phage spot ELISA. Positive clones were subjected to SANGER sequencing.

[2] = test system: CD28; test: phage spot ELISA on CD28; conditions: for S/N: phage spot ELISA signal/noise; for ELISA: phage spot ELISA signal
Text: as §1, §2

[3] = test system: VEGF; test: phage spot ELISA on VEGF; conditions: S3 Table sheet VEGF; for S/N: phage spot ELISA signal/noise; for ELISA: phage spot ELISA signal
Text: as §1, §2

[4] = S3 Table sheet CD28-1 (panning campaign 1)
[5] = S3 Table sheet CD28-2 (panning campaign 2)

CC[C@H](C)[C@@H]1NC(=O)[C@@H]2CCCN2C(=O)[C@@H]2CSSC[C@H](NC(=O)[C@H](CCC(=O)O)NC(=O)[C@H](CCC(=O)O)NC(=O)[C@H](CO)NC(=O)[C@H](CO)NC(=O)[C@H](CCCCN)NC(=O)[C@H](C(C)C)NC(=O)[C@@H]3CCCN3C(=O)[C@H](C(C)C)NC(=O)CNC(=O)[C@H](Cc3ccc(O)cc3)NC(=O)[C@@H]3CCCN3C(=O)[C@H](CCCNC(=N)N)NC1=O)C(=O)N[C@@H](CCC(=O)O)C(=O)N[C@@H](CCCNC(=N)N)C(=O)N[C@@H](CC(C)C)C(=O)N[C@H]1CSSC[C@H](NC(=O)[C@H](CC(N)=O)NC(=O)[C@H]([C@@H](C)O)NC(=O)[C@H](C(C)C)NC(=O)CNC(=O)[C@H](CC(C)C)NC(=O)[C@H](CCCCN)NC(=O)[C@H](CCCNC(=N)N)NC1=O)C(=O)N[C@@H](CCCNC(=N)N)C(=O)N[C@@H](C(C)C)C(=O)N[C@@H](Cc1c[nH]cn1)C(=O)N[C@H](C(=O)NCC(=O)O)CSSC[C@H](NC(=O)[C@@H]1CCCN1)C(=O)N[C@@H](CCC(=O)O)C(=O)N2 [5ji4-CRD7-2] (H-PCECPIRPYGVPVKSSEECERLCRKLGVTNCRVHCG-OH; disulfide 2-35, 4-19, 23-31) was tested, and the ELISA signal [1] was 0.37 and the ELISA s/n [1] was 4.60.

Work on CSCC[C@@H]1NC(=O)[C@@H]2CSSC[C@H](NC(=O)[C@H]([C@@H](C)O)NC(=O)[C@H]([C@@H](C)O)NC(=O)[C@H](C)NC(=O)[C@H](Cc3c[nH]c4ccccc34)NC(=O)[C@H](CC(=O)O)NC(=O)[C@H](CC(N)=O)NC1=O)C(=O)N[C@@H](CCCNC(=N)N)C(=O)N[C@@H](C(C)C)C(=O)N[C@@H](Cc1c[nH]cn1)C(=O)N[C@H](C(=O)NCC(=O)O)CSSC[C@H](NC(=O)[C@@H]1CCCN1)C(=O)N[C@@H](CCC(=O)O)C(=O)N[C@H]1CSSC[C@H](NC(=O)[C@H](CCC(=O)O)NC(=O)[C@H](CCC(=O)O)NC(=O)[C@H](CO)NC(=O)[C@H](CO)NC(=O)[C@H](CO)NC(=O)[C@H](C(C)C)NC(=O)[C@H]([C@@H](C)O)NC(=O)[C@H](Cc3ccc(O)cc3)NC(=O)[C@H]([C@@H](C)O)NC(=O)[C@H](CCC(=O)O)NC(=O)CNC(=O)[C@H](CC(N)=O)NC(=O)[C@H](C(C)C)NC(=O)[C@H](CC(=O)O)NC1=O)C(=O)NCC(=O)N[C@@H](CCCNC(=N)N)C(=O)N[C@@H](CC(C)C)C(=O)N2 [5ji4-CRD7-3] (H-PCECDVNGETYTVSSSEECGRLCMNDWATTCRVHCG-OH; disulfide 2-35, 4-19, 23-31) yielded an ELISA signal [1] of 0.65 and an ELISA s/n [1] of 9.52.

“LECSHLQMFVIYNSSEECERLCRKLGVTSCRVHCG [CD28-1 clone 10, phage clone, 5JI4 library, CD28-1 panning]” was tested, and the S/N [2, 4] was 2.405 and the ELISA [2, 4] was 0.202.

For “PANAVIRTWIIFASSEECERLCRKLGVTNCRVHCG [CD28-1 clone 5, phage clone, 5JI4 library, CD28-1 panning]”, the S/N [2, 4] was 3.189 and the ELISA [2, 4] was 0.3.

Compound “PCECDHMQYFILYESSEECERLCRKLGVTNCRVHCG [CD28-1 clone 7, phage clone, 5JI4 library, CD28-1 panning]” has a S/N [2, 4] of 2.516 and an ELISA [2, 4] of 0.234.

Compound “PCECDVNGETYTVSSSEECERPCSWNEAFSCRVHCG [CD28-1 clone 15, phage clone, 5JI4 library, CD28-1 panning]” has a S/N [2, 4] of 2.576 and an ELISA [2, 4] of 0.219.

With “PCECDVNGETYTVSSSEECGRLCMNDWATTCRVHCG [CRD7 clone 7, phage clone, 5JI4 library, CRD7 panning]” the S/N [1] was 14.5714 and the ELISA [1] was 0.918.

“PCECDVNGETYTVSSSEECGRLCMQPWAHTCRVHCG [CRD7 clone 9, phage clone, 5JI4 library, CRD7 panning]” showed a S/N [1] of 4.522 and an ELISA [1] of 0.312.

Work on “PCECDVNGETYTVSSSEGCERLCSWDQGKWCRVHCG [CD28-1 clone 13, phage clone, 5JI4 library, CD28-1 panning]” yielded a S/N [2, 4] of 2.33 and an ELISA [2, 4] of 0.247.

“PCECDVNGETYTVSSSEGCERLCSWDTRRMCRVHCG [CD28-1 clone 14, phage clone, 5JI4 library, CD28-1 panning]” gave a S/N [2, 4] of 2.852 and an ELISA [2, 4] of 0.231.

Work on “PCECQENTTFIIYSSSEECERLCRKLGVTNCRVHCG [CD28-1 clone 12, phage clone, 5JI4 library, CD28-1 panning]” yielded a S/N [2, 4] of 1.979 and an ELISA [2, 4] of 0.192.

“PCECQFYGTMVGWSSSEECERLCRKLGVTNCRVHCG [VEGF clone 20, phage clone, 5JI4 library, VEGF panning]” showed a S/N [3] of 37.3956 and an ELISA [3] of 3.403.

“PCECVVLDTVVGKASSEECERLCRKLGVTNCRVHCG [VEGF clone 17, phage clone, 5JI4 library, VEGF panning]” showed a S/N [3] of 37.5957 and an ELISA [3] of 3.534.

In the case of “PCECWFYDALVGWTSSEECERLCRKLGVTNCRVHCG [VEGF clone 7, phage clone, 5JI4 library, VEGF panning]”, the S/N [3] is reported as 41.3 and the ELISA [3] is reported as 4.13.

With “PCECWMYHTNVGHGSSEECERLCRKLGVTNCRVHCG [VEGF clone 21, phage clone, 5JI4 library, VEGF panning]” the S/N [3] was 29.9279 and the ELISA [3] was 3.322.

With “PCECYFETTHVGFASSEECERLCRKLGVTNCRVHCG [VEGF clone 18, phage clone, 5JI4 library, VEGF panning]” the S/N [3] was 10.4498 and the ELISA [3] was 3.438.

“PCECYFQGVNVGESSSEECERLCRKLGVTNCRVHCG [VEGF clone 16, phage clone, 5JI4 library, VEGF panning]” gave a S/N [3] of 40.618 and an ELISA [3] of 3.615.

“PCECYFQXVKVGESSSEECERLCRKLGVTNCRVHCG [VEGF clone 6, phage clone, 5JI4 library, VEGF panning]” was tested, and the S/N [3] was 32.5 and the ELISA [3] was 4.23.

In the case of “PCECYFSNTMVGHSSSEECERLCRNLGVTNCRVHCG [VEGF clone 5, phage clone, 5JI4 library, VEGF panning]”, the S/N [3] is reported as 40.6 and the ELISA [3] is reported as 4.23.

“PCECYFYDIVVGFSSSEECERLCRKLGVTNCRVHCG [VEGF clone 1, phage clone, 5JI4 library, VEGF panning]” showed a S/N [3] of 58.3 and an ELISA [3] of 6.00.

Compound “PCECYIYNTGAGWGSSEECARLCRKLGVTNCRVHCG [VEGF clone 15, phage clone, 5JI4 library, VEGF panning]” has a S/N [3] of 30.6033 and an ELISA [3] of 3.703.

Compound “PCECYLPKVMVGFSSSEECERLCRNLGVTNCRVHCG [VEGF clone 10, phage clone, 5JI4 library, VEGF panning]” has a S/N [3] of 12.4652 and an ELISA [3] of 3.939.

In the case of “PCECYMSNVNVGESSSEECERLCRKLGVTNCRVHCG [VEGF clone 22, phage clone, 5JI4 library, VEGF panning]”, the S/N [3] is reported as 29.6607 and the ELISA [3] is reported as 3.322.

Compound “PCEFARQNVFIVHSSSEECERLCRTLGVTNCRVHCG [CD28-1 clone 8, phage clone, 5JI4 library, CD28-1 panning]” has a S/N [2, 4] of 1.6194 and an ELISA [2, 4] of 0.217.

With “PCESIQDVWIIHDSSEECERLCRKLGVTNCRVHCG [CD28-1 clone 6, phage clone, 5JI4 library, CD28-1 panning]” the S/N [2, 4] was 2.28 and the ELISA [2, 4] was 0.244.

Work on “PCESQSMQHFIIYNSSEECERLCRKLGVTNCRVHCG [CD28-1 clone 1, phage clone, 5JI4 library, CD28-1 panning]” yielded a S/N [2, 4] of 4.839 and an ELISA [2, 4] of 0.542.

In the case of “PCEYQTWRVVIPDASSEECERLCRKLGVTNCRVHCG [CD28-1 clone 3, phage clone, 5JI4 library, CD28-1 panning]”, the S/N [2, 4] is reported as 4.407 and the ELISA [2, 4] is reported as 0.4.

Work on “PRECDEDNIWIIANSSEECERLCRKLGVTNCRVHCG [CD28-1 clone 9, phage clone, 5JI4 library, CD28-1 panning]” yielded a S/N [2, 4] of 1.511 and an ELISA [2, 4] of 0.213.

Work on “PWNANVNGETYTVSSSEECERLCSAGLVNSCRVHCG [CD28-2 clone 1, phage clone, 5JI4 library, CD28-2 panning]” yielded a S/N [2, 5] of 7.9375 and an ELISA [2, 5] of 0.508.

In the case of “PYECWRGQYFIIYKSSEECERLCRKLGVTNCRVHCG [CD28-1 clone 11, phage clone, 5JI4 library, CD28-1 panning]”, the S/N [2, 4] is reported as 2.209 and the ELISA [2, 4] is reported as 0.201.

“RANAFWVVLVPDGGSSEECERLCRKLGVTNCRVHCG [CD28-1 clone 4, phage clone, 5JI4 library, CD28-1 panning]” was tested, and the S/N [2, 4] was 2.932 and the ELISA [2, 4] was 0.4.

With “RANATEWVPWIIYQSSEECERLCRKLGVTNCRVHCG [CD28-1 clone 2, phage clone, 5JI4 library, CD28-1 panning]” the S/N [2, 4] was 5.637 and the ELISA [2, 4] was 0.5.
